Consider 20 compounds from patent publication US7951815B2, “Substituted 1,4,8-triazaspiro [4,5]decan-2-one compounds” (Gruenenthal GmbH, priority 2004, dated 2011).

In one experiment the target is T1, 5-HT transporter (Rattus norvegicus, UniProt P31652).
T1 construct: synaptosomes of rat brain areas are freshly isolated; from tissue; host or cells: rat brain synaptosomes (P2 fraction) from marrow and pons
In words: Inhibition of 5-HT uptake in rat brain synaptosomes. Type of experiment: biochemical. The following applies: Table III, rat, 1 μM; for inhibition at 1 µM: read-out: Uptake 5-HT, % inhibition.

A further experiment deals with NA transporter. Description: Inhibition of noradrenaline uptake in rat brain synaptosomes. The class given is biochemical. The settings on record: Table III.
Experiment [1] has as its system batrachotoxin (BTX) binding site of the sodium channel. Description: Affinity to the batrachotoxin (BTX) binding site of the sodium channel. The following applies: Table III; rat cerebrocortex synaptosomes; test concentration not given.

T1 sequence (P31652 whole entry): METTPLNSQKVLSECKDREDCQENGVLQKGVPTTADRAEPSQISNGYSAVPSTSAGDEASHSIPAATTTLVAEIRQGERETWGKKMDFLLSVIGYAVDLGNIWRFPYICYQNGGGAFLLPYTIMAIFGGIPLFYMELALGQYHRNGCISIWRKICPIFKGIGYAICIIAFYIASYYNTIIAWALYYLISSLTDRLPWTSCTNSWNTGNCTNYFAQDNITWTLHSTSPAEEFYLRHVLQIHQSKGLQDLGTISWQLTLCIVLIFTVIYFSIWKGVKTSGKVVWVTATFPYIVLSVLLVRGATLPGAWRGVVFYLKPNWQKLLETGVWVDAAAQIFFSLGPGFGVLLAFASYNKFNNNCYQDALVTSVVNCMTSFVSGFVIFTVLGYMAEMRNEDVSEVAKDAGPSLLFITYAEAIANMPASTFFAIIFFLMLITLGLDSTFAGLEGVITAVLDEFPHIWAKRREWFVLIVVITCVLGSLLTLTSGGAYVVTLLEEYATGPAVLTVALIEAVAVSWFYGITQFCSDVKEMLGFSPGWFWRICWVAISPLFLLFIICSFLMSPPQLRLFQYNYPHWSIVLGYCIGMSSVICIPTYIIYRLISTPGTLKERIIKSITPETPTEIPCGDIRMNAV

The term inhibition denotes how much of the control response was suppressed. With `CN(C)c1cccc(C(=O)N2CCC3(CC2)NC(Cc2ccccc2)C(=O)N3Cc2ccccc2)c1` (centres unmarked) [Example 99, 1,3-Dibenzyl-8-(3-dimethylaminobenzoyl)-1,4,8-triazaspiro[4,5]decan-2-one], the inhibition at 1 µM on 5-HT transporter was found to be 79%. In addition, in the experiment with NA transporter, the “Uptake (NA), rat, 10 μM, % inhibition” value is on record as 42%. The compound further displayed a BTX inhibition in experiment [1] of 66.
In the same order, the values of `C#CCN1C(=O)C(CC(C)C)NC12CCN(C(=O)COc1ccc(Cl)cc1)CC2` (centres unmarked) [Example 104, 8-[2-(4-Chlorophenoxy)acetyl]-3-isobutyl-1-prop-2-ynyl-1,4,8-triazaspiro[4,5]decan-2-one] are 48%, 36% and 41.
In the same order, the values of `CC(C)CC1NC2(CCN(C(=O)c3cccc(N(C)C)c3)CC2)N(Cc2ccccc2C#N)C1=O` (centres unmarked) [Example 111, 2-[8-(3-Dimethylaminobenzoyl)-3-isobutyl-2-oxo-1,4,8-triazaspiro[4,5]dec-1-ylmethyl]benzonitrile] are 58%, 38% and 42.
`CC(C)CC1NC2(CCN(C(=O)c3cccnc3Cl)CC2)N(Cc2ccc(F)cc2)C1=O` (centres unmarked) [Example 118, 8-(2-Chloropyridin-3-carbonyl)-1-(4-fluorobenzyl)-3-isobutyl-1,4,8-triazaspiro[4,5]decan-2-one]: on 5-HT transporter, the inhibition at 1 µM turned out to be 38%. For the same compound, the “Uptake (NA), rat, 10 μM, % inhibition” value with NA transporter came to 30%. In addition, the BTX inhibition in experiment [1] stood at 44.
As to `CN1C(=O)C(Cc2ccccc2)NC12CCN(C(=O)CC(C)(C)C)CC2` (centres unmarked) [Example 126, 3-Benzyl-8-(3,3-dimethylbutyryl)-1-methyl-1,4,8-triazaspiro[4,5]decan-2-one], the “Uptake (NA), rat, 10 μM, % inhibition” value in the experiment with NA transporter is 44%. In addition, in experiment [1], the BTX inhibition is on record as 34.
In the same order, the values of `CN1C(=O)C(Cc2ccccc2)NC12CCN(C(=O)COCc1ccccc1)CC2` (centres unmarked) [Example 141, 3-Benzyl-8-(2-benzyloxyacetyl)-1-methyl-1,4,8-triazaspiro[4,5]decan-2-one] are 36% and 45.
On to `CCOC(=O)CN1C(=O)C(Cc2ccccc2)NC12CCN(C(=O)c1ccc(NC(C)=O)cc1)CC2` (centres unmarked) [Example 256, Ethyl [8-(4-acetylaminobenzoyl)-3-benzyl-2-oxo-1,4,8-triazaspiro[4,5]dec-1-yl]acetate], for which the inhibition at 1 µM on 5-HT transporter was 94%. Further, the “Uptake (NA), rat, 10 μM, % inhibition” value in the experiment with NA transporter was 57%. The BTX inhibition in experiment [1] is 48.
For `CC(C)CC1NC2(CCN(C(=O)c3ccc4c(c3)OCO4)CC2)N(Cc2c(Cl)cccc2Cl)C1=O` (centres unmarked) [Example 264, 8-(Benzo[1,3]dioxole-5-carbonyl)-1-(2,6-dichlorobenzyl)-3-isobutyl-1,4,8-triazaspiro[4,5]decan-2-one], the “Uptake (NA), rat, 10 μM, % inhibition” value in the experiment with NA transporter came out at 36%. The compound further gave a BTX inhibition in experiment [1] of 63.
In the same order, the values of `C=CCN1C(=O)C(C(C)C)NC12CCN(C(=O)c1ccc(-c3ccccc3)cc1)CC2` (centres unmarked) [Example 265, 1-Allyl-8-(biphenyl-4-carbonyl)-3-isopropyl-1,4,8-triazaspiro[4,5]decan-2-one] are 32% and 34.
Consider `CCOC(=O)CN1C(=O)C(Cc2ccccc2)NC12CCN(C(=O)c1ccc(-c3ccccc3)cc1)CC2` (centres unmarked) [Example 266, Ethyl [3-benzyl-8-(biphenyl-4-carbonyl)-2-oxo-1,4,8-triazaspiro[4,5]dec-1-yl]acetate], for which the inhibition at 1 µM at 5-HT transporter came to 94%. Also, the “Uptake (NA), rat, 10 μM, % inhibition” value in the experiment on NA transporter is listed as 38%. For the same compound, the BTX inhibition in experiment [1] is listed as 57.
As for `CCOC(=O)CCC(=O)N1CCC2(CC1)NCC(=O)N2Cc1ccccc1F` [Example 270, Ethyl 4-[1-(2-fluorobenzyl)-2-oxo-1,4,8-triazaspiro[4,5]dec-8-yl]-4-oxo-butanate], the inhibition at 1 µM at 5-HT transporter came to 31%. Also, the “Uptake (NA), rat, 10 μM, % inhibition” value in the experiment on NA transporter is 37%. The BTX inhibition in experiment [1] is given as 33.
`COc1ccccc1C(=O)N1CCC2(CC1)NC(Cc1ccccc1)C(=O)N2Cc1ccccc1F` (centres unmarked) [Example 274, 3-Benzyl-1-(2-fluorobenzyl)-8-(2-methoxybenzoyl)-1,4,8-triazaspiro[4,5]decan-2-one]: the inhibition at 1 µM at 5-HT transporter amounted to 97%. The “Uptake (NA), rat, 10 μM, % inhibition” value in the experiment on NA transporter was found to be 64%. The compound further displayed a BTX inhibition in experiment [1] of 85.
`CCOC(=O)C(C)(C)C(=O)N1CCC2(CC1)NC(CC(C)C)C(=O)N2CCCCOC(C)=O` (centres unmarked) [Example 278, Ethyl 2-[1-(4-acetoxybutyl)-3-isobutyl-2-oxo-1,4,8-triazaspiro[4,5]dec-8-yl]-1,1-dimethyl-2-oxo-acetate]: the “Uptake 5-HT, rat, 1 μM, % inhibition” value on 5-HT transporter was found to be 39%. Also, in the experiment on NA transporter, the “Uptake (NA), rat, 10 μM, % inhibition” value was 56%.
On to `CCOc1ccccc1C(=O)N1CCC2(CC1)NCC(=O)N2Cc1ccccc1F` [Example 280, 8-(2-Ethoxybenzoyl)-1-(2-fluorobenzyl)-1,4,8-triazaspiro[4,5]decan-2-one], for which, at 5-HT transporter, the inhibition at 1 µM was 60%. Also, the “Uptake (NA), rat, 10 μM, % inhibition” value in the experiment with NA transporter is given as 35%. Moreover, the BTX inhibition in experiment [1] amounted to 30.
For the compound `C=CCN1C(=O)C(CCSC)NC12CCN(C(=O)C1CC1)CC2` (centres unmarked) [Example 281, 1-Allyl-8-cyclopropanecarbonyl-3-(2-methylsulfanylethyl)-1,4,8-triazaspiro[4,5]decan-2-one], the inhibition at 1 µM at 5-HT transporter amounted to 56%. For the same compound, the “Uptake (NA), rat, 10 μM, % inhibition” value with NA transporter was 30%.
Turning to `C=CCCC(=O)N1CCC2(CC1)NCC(=O)N2Cc1ccccc1F` [Example 287, 1-(2-Fluorobenzyl)-8-pent-4-enoyl-1,4,8-triazaspiro[4,5]decan-2-one], the inhibition at 1 µM at 5-HT transporter is 41%. For the same compound, the “Uptake (NA), rat, 10 μM, % inhibition” value in the experiment on NA transporter worked out at 41%. Moreover, the BTX inhibition in experiment [1] is 32.
As to `C=CCN1C(=O)C(CCSC)NC12CCN(C(=O)c1cccnc1SC)CC2` (centres unmarked) [Example 290, 1-Allyl-3-(2-methylsulfanylethyl)-8-(2-methylsulfanylpyridin-3-carbonyl)-1,4,8-triazaspiro[4,5]decan-2-one], in the experiment on NA transporter, the “Uptake (NA), rat, 10 μM, % inhibition” value is given as 31%. Further, the BTX inhibition in experiment [1] is reported as 30.
For the compound `Cc1cc(C(=O)N2CCC3(CC2)NC(CC(C)C)C(=O)N3Cc2c(Cl)cccc2Cl)c(C)o1` (centres unmarked) [Example 295, 1-(2,6-Dichlorobenzyl)-8-(2,5-dimethylfuran-3-carbonyl)-3-isobutyl-1,4,8-triazaspiro[4,5]decan-2-one], in the experiment with NA transporter, the “Uptake (NA), rat, 10 μM, % inhibition” value is recorded as 36%. In experiment [1], this compound gave a BTX inhibition of 63.
Taken in the same sequence, the figures for `CCOC(=O)CN1C(=O)C(CCSC)NC12CCN(C(=O)c1ccc(C(C)(C)C)cc1)CC2` (centres unmarked) [Example 297, Ethyl [8-(4-tert-butylbenzoyl)-3-(2-methylsulfanylethyl)-2-oxo-1,4,8-triazaspiro[4,5]dec-1-yl]acetate] were 32% and 36.
`C=CCN1C(=O)C(CCSC)NC12CCN(C(=O)CCc1ccccc1)CC2` (centres unmarked) [Example 328, 1-Allyl-3-(2-methylsulfanylethyl)-8-(3-phenylpropionyl)-1,4,8-triazaspiro[4,5]decan-2-one]: the inhibition at 1 µM at 5-HT transporter was found to be 32%. Also, in the experiment with NA transporter, the “Uptake (NA), rat, 10 μM, % inhibition” value is 33%.
